This is an account of results in article PMC13129536 (The Journal of Biological Chemistry, 2026).

For this assay, the system named is Mtb (mc^26030). The format is cell-based, Mycobacterium tuberculosis. As to conditions: combined with meropenem.

Molecules are shown by their SMILES.

For `Cc1ccc(C)c(Nc2nc(NCc3ccccc3)c3ccccc3n2)c1` [Compound F0909-0124], the “FICA (apparent FIC)” value is given as “greater than 5.0”.
The value for `c1ccc(-c2nc3cc(Cc4ccc5[nH]c(-c6ccccn6)nc5c4)ccc3[nH]2)nc1` [Compound F0850-5995] was “greater than 5.0”.
